SMILES strings stand for the structures.

The target of the experiment is FKBP12 (Homo sapiens, UniProt P62942). Nature of the experiment: FKBP12 Rotamase Inhibition Assay. The conditions noted are these: for Ki: 4° C., chymotrypsin-coupled, succinyl-Ala-Leu-Pro-Phe-p-nitroanilide substrate, read-out: Ki (apparent Ki for inhibition of rotamase activity); for inhibition at 10 µM: read-out: Percent Inhibition at 10 μM (rotamase). It is filed as biochemical.
Chain of FKBP12 (P62942 whole entry, species assumed): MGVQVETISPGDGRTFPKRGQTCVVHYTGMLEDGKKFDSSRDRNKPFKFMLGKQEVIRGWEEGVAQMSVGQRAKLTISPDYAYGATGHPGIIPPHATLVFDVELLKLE

On to `COc1cc(C(F)(F)C(=O)N2CCC[C@H]2C(=O)OCCCc2cccnc2)cc(OC)c1OC` [Example 2], for which the Ki worked out at 0.877 µM. As a reminder, the inhibition is the share of the control response that was lost under treatment. Regarding `COc1cc(CCCOC(=O)[C@@H]2CCCN2C(=O)C(F)(F)c2cc(OC)c(OC)c(OC)c2)cc(OC)c1OC` [Example 8], the inhibition at 10 µM stood at 38%. For `COc1cc(C(F)(F)C(=O)N2CCC[C@H]2C(=O)OCCCc2ccccc2)cc(OC)c1OC` [Example 1], the Ki was determined as 1.3 µM and the inhibition at 10 µM is 97%.

For the molecule `COc1cc(C(F)(F)C(=O)N2CCC[C@H]2C(=O)OC(C)(C)CCc2ccccc2)cc(OC)c1OC` [Example 5], the inhibition at 10 µM was 70%.

Turning to `COc1cc(C(F)(F)C(=O)N2CCC[C@H]2C(=O)OC(CCCc2ccccc2)CCCc2cccnc2)cc(OC)c1OC` (stereo partly shown) [Example 3], the Ki is 0.104 µM and the inhibition at 10 µM was 97%. The like results for `COc1cc(CCCOC(=O)[C@@H]2CCCCN2C(=O)C(F)(F)c2cc(OC)c(OC)c(OC)c2)cc(OC)c1OC` [Example 9] were, in that order, 0.109 µM and 99%.

`COc1cc(C(F)(F)C(=O)N2CCC[C@H]2C(=O)OC(CCc2ccccc2)c2ccccc2)cc(OC)c1OC` (stereo partly shown) [Example 6]: the Ki worked out at 0.083 µM and the inhibition at 10 µM stood at 100%.

In the case of `COc1cc(C(F)(F)C(=O)N2CCCC[C@H]2C(=O)OC(CCCc2ccccc2)CCCc2cccnc2)cc(OC)c1OC` (stereo partly shown) [Example 4], the inhibition at 10 µM came to 98%. For the molecule `COc1cc(C(F)(F)C(=O)N2CCCC[C@H]2C(=O)OC(CCc2ccccc2)c2ccccc2)cc(OC)c1OC` (stereo partly shown) [Example 7], the inhibition at 10 µM was found to be 94%.

Source of the values: patent publication US6239146A, “Neurotrophic difluoroamide agents” (Bristol-Myers Squibb Company, priority 2000, dated 2001).
